What was measured:
HEK-293 cells = test: Cytotoxicity assessment, Cell Titer-Glo, 72 hours; type: cell-based, human; conditions: CTG viability at 72 hrs
From the text: Immunofluorescence‐based assays have been previously used to analyse global changes in H3K4me3 as a measure of KDM5 activity, but the global change can be affected by other factors such as cytotoxicity.17 We therefore employed chromatin immunoprecipitation and sequencing (ChIP‐seq) as a more accurate method to quantify the H3K4me3 level at transcriptional start sites (TSS) as a read‐out for inhibition of KDM5 activity. […] Compounds 4, 7 and 9 were selected for H3K4me3 ChIP‐seq experiments and quantification.18 […]
(§1) Covalent binding RapidFire
Recombinant KDM5B (MW = 55152 Da) was incubated at 1 μM with the appropriate compound at 10 μM for 2 hours at 37 °C in 50 mM MES buffer at pH 7.0. Samples were injected in RapidFire 365 and MS was detected in QTOF mass spectrometer. Data were acquire and analysed with Agilent Mass Hunter software. […]
(§2) Digestion with elastase (1 µL) overnight at 37 °C followed by purification with SEP-PAK C18 columns and resuspension of the final sample in 98% MilliQ-H20 2% CH3CN 0.1% TFA gave the final sample ready to inject. […]
NanoBRET™ Nano-Glo® substrate (Promega UK) and Extracellular NanoLuc Inhibitor (Promega UK) were added at final concentrations of 10 and 20 µM, respectively. Readings were performed within 5 minutes using a PHERAstar FSX (BMG Labtech) with 450 and 610 nm filters. […] BRET ratios are expressed as milliBRET units (mBU), where 1 mBU corresponds to […]

KDM4B = target: T1, KDM4B (Homo sapiens, UniProt O94953); test: Covalent binding by MS, KDM4B; conditions: same conditions as with KDM5B
T1 sequence (O94953 1-1096): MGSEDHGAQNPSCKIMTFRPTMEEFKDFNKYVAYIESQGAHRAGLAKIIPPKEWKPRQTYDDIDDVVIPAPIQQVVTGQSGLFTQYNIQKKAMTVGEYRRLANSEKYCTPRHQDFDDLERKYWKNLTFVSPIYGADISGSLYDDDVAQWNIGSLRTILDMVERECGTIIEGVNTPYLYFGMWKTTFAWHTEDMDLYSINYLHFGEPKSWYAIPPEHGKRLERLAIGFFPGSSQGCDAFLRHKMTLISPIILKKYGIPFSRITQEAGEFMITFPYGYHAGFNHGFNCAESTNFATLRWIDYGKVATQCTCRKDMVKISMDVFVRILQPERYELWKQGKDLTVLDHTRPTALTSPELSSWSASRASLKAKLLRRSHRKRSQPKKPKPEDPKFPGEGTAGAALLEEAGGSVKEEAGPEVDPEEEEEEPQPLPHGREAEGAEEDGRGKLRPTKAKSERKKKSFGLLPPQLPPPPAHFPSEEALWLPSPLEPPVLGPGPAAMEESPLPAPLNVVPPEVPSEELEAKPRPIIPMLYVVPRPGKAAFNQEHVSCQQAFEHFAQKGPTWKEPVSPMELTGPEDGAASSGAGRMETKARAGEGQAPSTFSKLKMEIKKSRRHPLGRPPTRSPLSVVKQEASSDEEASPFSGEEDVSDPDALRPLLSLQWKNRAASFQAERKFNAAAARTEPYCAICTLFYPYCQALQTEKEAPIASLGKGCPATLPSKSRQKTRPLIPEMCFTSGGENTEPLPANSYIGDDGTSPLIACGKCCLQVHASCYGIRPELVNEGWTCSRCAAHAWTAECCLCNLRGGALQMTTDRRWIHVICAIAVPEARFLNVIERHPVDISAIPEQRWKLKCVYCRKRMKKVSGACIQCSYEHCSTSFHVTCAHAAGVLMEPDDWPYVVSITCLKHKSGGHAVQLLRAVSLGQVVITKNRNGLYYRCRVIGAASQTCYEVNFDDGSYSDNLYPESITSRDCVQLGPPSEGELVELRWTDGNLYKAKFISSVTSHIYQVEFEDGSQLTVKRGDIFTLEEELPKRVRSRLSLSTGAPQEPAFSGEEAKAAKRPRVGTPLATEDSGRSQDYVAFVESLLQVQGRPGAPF
Description: Covalent binding of the inhibitors with KDM5B was confirmed through MS‐labelling experiments (Figure 3). […] The specific covalent binding to KDM5B explains the improved selectivity over KDM5C and KDM4B compared to non‐covalent inhibitor 2.
as §1
Recombinant KDM5B (MW = 55152 Da) was incubated at 1 μM with the appropriate compound at 10 μM for 2 hours at 37 °C in 50 mM MES buffer at pH 7.0. Samples were injected in RapidFire 365 and MS was detected in QTOF mass spectrometer. Data were acquire and analysed with Agilent Mass Hunter software.
Recombinant KDM5B was incubated at 1 μM with the appropriate compound at 10 μM for 2 hours at 37 °C in 200 µL of 50 mM MES buffer at pH 7.0. […]
as §2
NanoBRET™ Nano-Glo® substrate (Promega UK) and Extracellular NanoLuc Inhibitor (Promega UK) were added at final concentrations of 10 and 20 µM, respectively. Readings were performed within 5 minutes using a PHERAstar FSX (BMG Labtech) with 450 and 610 nm filters. Corrected BRET ratios were calculated and is defined as the ratio if the emission at 610/450 nm for experimental samples (i.e. those treated with tracer) minus the emission at 610/450 nm for control samples (DMSO controls). […]

Structure (SMILES)	cytotoxicity in HEK cells (HEK-293 cells)	covalent binding to KDM4B by MS (KDM4B)
CN(CCc1cnn(-c2nccc3c(=O)[nH]cnc23)c1)Cc1cccc(NC(=O)CCl)c1 [Compound 5]	with the exception of 5, compounds were not cytotoxic	
CN(C)C/C=C/C(=O)Nc1cccc(CN(C)CCc2cnn(-c3nccc4c(=O)[nH]cnc34)c2)c1 [Compound 6]		no covalent binding
